Source: PMC7660103, “Discovery of Novel 3-Cyanopyridines as Survivin Modulators and Apoptosis Inducers” (Molecules, 2020)

Target: T1, survivin (Homo sapiens, UniProt O15392)
T1 construct: Western blotting analysis in MDA-MB-231cells treated with different concentrations of both compounds; endogenous in cells; host or cells: MDA-MB-231
Assay: Western blotting of survivin in MDA-MB-231 cells
Type: cell-based
Conditions: for survivin expression (Western blot, in words): MDA-MB-231, 1, 5 and 10 µM
Procedure: The ability of the 2-oxo-3-cyano pyridines 5c and 5e to cause an inhibition of survivin was evaluated by the use of Western blotting analysis in MDA-MB-231cells treated with different concentrations of both compounds (1, 5, and 10 µM). […] Furthermore, to test the effect of these compounds on some other IAP family proteins, the Western plot of Livin, XIAP, and C-IAP1 proteins was performed (Figure 6). […] The Supplementary Material Figures S40 and S41 contain western blotting analysis for 5c and 5e.
MDA-MB-231 cancer cells were incubated with 5c and 5e at different concentrations (1, 5, and 10 µM) for 48 h. Afterwards, the medium was detached, and the cells were washed using PBS (10 mmol/L, pH 7.4). Then, the cells were incubated on cold lysis buffer (50 mmol/L Tris–HCl, 150 mmol/L NaCl, 1 mmol/L EGTA, 1 mmol/L EDTA, 20 mmol/L NaF, […], 0.5% NP40, 1% Triton X-100, 1 mmol/L PMSF (pH 7.4)) and a freshly added cocktail inhibitor (Inhibitor Cocktail Set III, Calbiochem, La Jolla, CA) above ice for 30 min. Then, MDA-MB-231 cells were collected and centrifuged at 12,000× g for 15 min.
XIAp, Survivin, Livin, and cIAP1anti-mouse, anti-rabbit secondary antibodies, and GAPDH were purchased from Sigma-Aldrich, whereas the gel was obtained from BioRad. Polyacrylamide gels were moved to a nitrocellulose membrane in order to block in buffer (7% nonfat dry milk/1% Tween 20; in 20 mmol/L TBS (pH 7.6)) for 1 h and incubated for 2 h at room temperature with the suitable primary antibody in blocking buffer or overnight at 4 °C; then, they were incubated with secondary antibody HRP conjugate. Finally, the blots analysis was done using the imaging system.

T1 sequence (O15392 whole entry): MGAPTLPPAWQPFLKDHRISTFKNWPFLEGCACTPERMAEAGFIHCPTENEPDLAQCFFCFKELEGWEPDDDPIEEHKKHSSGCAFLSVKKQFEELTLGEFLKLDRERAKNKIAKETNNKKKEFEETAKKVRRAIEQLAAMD

Structure (SMILES)	Survivin band % (MDA-MB-231, 1µM) [%]	Survivin band Area (MDA-MB-231, 1µM)	Survivin band Height (MDA-MB-231, 1µM)	Survivin band Width (MDA-MB-231, 1µM)	Survivin band % (MDA-MB-231, 5µM) [%]	Survivin band Area (MDA-MB-231, 5µM)	Survivin band Height (MDA-MB-231, 5µM)	Survivin band Width (MDA-MB-231, 5µM)	Survivin band % (MDA-MB-231, 10µM) [%]	Survivin band Area (MDA-MB-231, 10µM)	Survivin band Height (MDA-MB-231, 10µM)	Survivin band Width (MDA-MB-231, 10µM)	survivin expression (Western blot, in words)
N#Cc1c(-c2ccc(Cl)cc2)cc(-c2ccc(OCc3ccc(F)cc3)cc2)[nH]c1=O [Compound 5c, 4-(4-Chlorophenyl)-6-(4-((4-fluorobenzyl)oxy)phenyl)-2-oxo-1,2-dihydropyridine-3-carbonitrile]	38.3	2261	156	26	25.9	1674	137	16	15.6	1028	121	13	remarkable inhibition of survivin expression
COc1ccc(-c2cc(-c3ccc(OCc4ccc(F)cc4)cc3)[nH]c(=O)c2C#N)cc1 [Compound 5e, 6-(4-((4-Fluorobenzyl)oxy)phenyl)-4-(4-methoxyphenyl)-2-oxo-1,2-dihydropyridine-3-carbonitrile]	31.4	1368	120	22	25	1079	108	19	19.1	1062	105	18	remarkable inhibition of survivin expression
